According to PMC7352759, “S(+)-(2E)-N-(2-Hydroxypropyl)-3-Phenylprop-2-Enamide (KM-568): A Novel Cinnamamide Derivative with Anticonvulsant Activity in Animal Models of Seizures and Epilepsy” (International Journal of Molecular Sciences, 2020):

What was measured:
[1] = test system: rat cerebral cortex AMPA receptor; test: AMPA receptor radioligand binding ([3H]AMPA); conditions: 10 µM; agonist radioligand
Description: In order to identify molecular mechanism of action, KM-568 was tested at 10 µM in three radioligand binding assays: rat cerebral cortex GABA receptor non-selective agonist radioligand, AMPA (α-amino-3-hydroxy-5-methyl-4-isoxazolepropionic acid) receptor agonist radioligand, and NMDA (N-methyl-D-aspartate) receptor antagonist radioligand as well as one functional assay involving a human recombinant TRPV1 receptor expressed in CHO cells (agonist and antagonist effects).
Tests were performed by Eurofins Cerep (Eurofins CEREP SA, Celle-Lévescault, France) as a commercial service. In radioligand assays, rat cerebral cortex GABA receptor as well as rat cerebral cortex AMPA (α-amino-3-hydroxy-5-methyl-4-isoxazolepropionic acid) and NMDA (N-methyl-D-aspartate) receptors with 10 nM [^3H]GABA, 8 nM [^3H]AMPA, and 5 nM [^3H]CGP39653, respectively, were used. The results were detected by means of scintillation counting. In functional assays, a human recombinant TRPV1 receptor expressed in Chinese hamster ovary (CHO) cells with 1 µM capsaicin or 30 nM capsazepine were used. Fluorimetry was used as a detection method.

mice [2] = test: Maximal electroshock test (MES), mice; type: in vivo; conditions: for ED50: Mus musculus, 95% confidence interval in parentheses
Description: (§1) In vivo activity testing was performed at the Epilepsy Branch, National Institute of Neurological Disorders and Stroke, National Institutes of Health (NIH, Bethesda, USA) within the Anticonvulsant Screening Program (ASP) (currently known as the Epilepsy Therapy Screening Program (ETSP)). Pharmacological evaluation was planned and performed in accordance with the Institute of Laboratory Resources polices on the humane care of laboratory animals and approved by the University of Utah’s Institutional Animal Care and Use Committee (IACUC). All testing protocols were previously published as well as they are available on the NIH website. In the tests, albino mice Carworth Farms No.1 (CF-1) (Charles River), C57/Bl6 mice (Charles River), Frings mice (University of Utah) or male rats Sprague–Dawley (Charles River) were used. All animals were housed, fed, and handled in a manner consistent with the recommendations in the National Council Publication, ‘Guide for the Care and Use of Laboratory animals’ [51]. The tested compound was suspended in 0.5% methylcellulose.
After intraperitoneal or oral administration of compound KM-568 at certain dose, an alternating current at 60 Hz and 50 mA (mice) or 150 mA (rats) was delivered for 0.2 sec via corneal electrodes to induce seizures. Prior to each stimulation, a drop of 0.5% tetracaine hydrochloride in saline was applied to cornea. Protection was defined as the abolition of the hindlimb tonic extension of the seizures.

corneal kindled mice = test: Corneal kindled seizure model in mice; type: in vivo; conditions: for Average Seizure Score / Results (protected/tested animals): corneal kindled mice, i.p.
Description: Mice were stimulated via corneal electrodes (3 mA, 60 Hz, 3 sec) for an average of 12 days, 4 h apart. Prior to each stimulation, a drop of 0.5% tetracaine hydrochloride in saline was applied to the cornea. After development of five consecutive seizure stages at level 5 according to the Racine scale, animals were considered kindled. The groups of 8 mice received an intraperitoneal injection of appropriate doses of KM-568. […] Mice were scored as protected if the seizure score was less than or equal to three and not protected if the seizure score was more than three, based on the Racine scoring system.

H9c2 cells = test: MTT cytotoxicity assay, H9c2; type: cell-based, rat
Description: Human liver cancer HepG2 cell line (ATCC HB8065) and rat cardiomyoblast cell line H9c2 (ATCC-CRL1446) were purchased in ATCC (American Type Culture Collection, Manassas, VA, USA). The cells were cultured in standard conditions (37 °C, 5% CO2) in EMEM medium (ATCC, Manassas, VA, USA), supplemented with 10% FBS (Gibco, Waltham, MA, USA) and antibiotics (1% streptomycin/penicillin mixture, Sigma–Aldrich, Darmstadt, Germany) or DMEM high glucose (ATCC, Manassas, VA, USA) supplemented with 10% FBS (Gibco, Waltham, MA, USA) and antibiotics (1% streptomycin/penicillin mixture, Sigma–Aldrich, Darmstadt, Germany), respectively.
The MTT colorimetric assay was used to determine the cytotoxic effects of the KM-568 and DOX (Sigma–Aldrich, Darmstadt, Germany). Cells were seeded at a density of 1 × 10^4 in 96-well plates. Following overnight culture, the cells were then treated with KM-568 and DOX in concentration range 0.1–200 µM (hepatocytotoxicity) or 0.1–100 µM (cardiocytotoxicity). Following cell exposure to each drug for 24 h in 96 well plates, 10 µL MTT reagent (Sigma–Aldrich, Darmstadt, Germany) was added to each well; after 4 h of incubation (37 °C, 5% CO2), the medium was aspirated and formazan produced in cells appeared as dark crystals in the bottom of the wells. […] Then, absorbance was measured at 570 nm on a multi-well plate reader (Spectra Max iD3, Molecular Devices, San Jose, CA, USA). […]

mice [3] = test: Subcutaneous metrazol seizure threshold test (scMET), mice; type: in vivo; conditions: for ED50: Mus musculus, 95% confidence interval in parentheses
Description: as §1
The tested compound was administered i.p. or p.o. at certain dose. Then, subcutaneous injection of metrazol (syn. pentetrazol, pentylenepentetrazol) dissolved in 0.9% NaCl at the dose of 85 mg/kg (mice) or 70 mg/kg (rats) was performed to induce seizures. Protection was scored if there was not an observed episode of clonic spasm of at least 5 sec.

CF-1 mice = test: Chemoconvulsant test, picrotoxin; type: in vivo; conditions: 0.25 h; for Picrotoxin Results (protected/tested animals): i.p.
Description: After 0.25 h, the subcutaneous injections of either bicuculine (2.7 mg/kg) or picrotoxin (2.5 mg/kg) were performed. The, animals were placed in isolation cages and observed for 30 min (in a bicuculine assay) or 45 min (in a picrotoxin assay) for the presence or absence of an episode of a clonic seizure.

**Q.** What does the source list for C[C@H](O)CNC(=O)/C=C/c1ccccc1 [KM-568, S(+)-(2E)-N-(2-hydroxypropyl)-3-phenylprop-2-enamide]?
**A.** Effect in AMPA receptor radioligand binding assay [1]: No significant effects; ED50 (mice [2]; ip, 0.25 h): 44.5 mg/kg; ED50 (mice [2]; po, 0.5 h): 86.6 mg/kg; MES Results (protected/tested animals) (mice [2]; i.p., 25 mg/kg, 0.25 h): 0/8; MES Results (protected/tested animals) (mice [2]; i.p., 38 mg/kg, 0.25 h): 1/8; MES Results (protected/tested animals) (mice [2]; i.p., 41 mg/kg, 0.25 h): 0/8; MES Results (protected/tested animals) (mice [2]; i.p., 42 mg/kg, 0.25 h): 2/8; MES Results (protected/tested animals) (mice [2]; i.p., 44 mg/kg, 0.25 h): 5/8; MES Results (protected/tested animals) (mice [2]; i.p., 50 mg/kg, 0.25 h): 7/8; MES Results (protected/tested animals) (mice [2]; p.o., 50 mg/kg, 0.5 h): 0/8; MES Results (protected/tested animals) (mice [2]; p.o., 60 mg/kg, 0.5 h): 2/8; MES Results (protected/tested animals) (mice [2]; p.o., 70 mg/kg, 0.5 h): 2/8; MES Results (protected/tested animals) (mice [2]; p.o., 90 mg/kg, 0.5 h): 3/8; MES Results (protected/tested animals) (mice [2]; p.o., 120 mg/kg, 0.5 h): 7/8; MES Results (protected/tested animals) (mice [2]; p.o., 150 mg/kg, 0.5 h): 8/8; ED50 (corneal kindled mice; Mus musculus, ip, mice, 0.5 h (table title)): 79.2 mg/kg; Average Seizure Score (corneal kindled mice; 57 mg/kg): 4.0; Results (protected/tested animals) (corneal kindled mice; 57 mg/kg): 1/8; Average Seizure Score (corneal kindled mice; 84 mg/kg): 3.625; Results (protected/tested animals) (corneal kindled mice; 84 mg/kg): 5/8; Average Seizure Score (corneal kindled mice; 115 mg/kg): 0.625; Results (protected/tested animals) (corneal kindled mice; 115 mg/kg): 7/8; percent of living cells (H9c2 cells; H9c2, 24 h incubation with 100 µM): ~100%; cytotoxic effect, MTT assay (H9c2 cells; H9c2, up to 100 µM, 24 h): no cytotoxic effect; ED50 (mice [3]; ip, 0.25 h): 104 mg/kg; ED50 (mice [3]; po, 0.5 h): 107 mg/kg; scMET Results (protected/tested animals) (mice [3]; i.p., 70 mg/kg, 0.25 h): 2/8; scMET Results (protected/tested animals) (mice [3]; i.p., 100 mg/kg, 0.25 h): 3/8; scMET Results (protected/tested animals) (mice [3]; i.p., 138 mg/kg, 0.25 h): 5/8; scMET Results (protected/tested animals) (mice [3]; i.p., 170 mg/kg, 0.25 h): 8/8; scMET Results (protected/tested animals) (mice [3]; p.o., 50 mg/kg, 0.5 h): 1/8; scMET Results (protected/tested animals) (mice [3]; p.o., 100 mg/kg, 0.5 h): 4/8; scMET Results (protected/tested animals) (mice [3]; p.o., 150 mg/kg, 0.5 h): 4/8; scMET Results (protected/tested animals) (mice [3]; p.o., 200 mg/kg, 0.5 h): 8/8; ED50 (CF-1 mice; Mus musculus, ip, 95% confidence interval in parentheses): 94.1 mg/kg; Picrotoxin Results (protected/tested animals) (CF-1 mice; 70 mg/kg): 1/8; Picrotoxin Results (protected/tested animals) (CF-1 mice; 100 mg/kg): 5/8; Picrotoxin Results (protected/tested animals) (CF-1 mice; 130 mg/kg): 7/8
